Active and inactive are the calls of the source. No cut-off for these calls is given here.

The target of data set [1] is T1, Acetylcholinesterase (Homo sapiens, UniProt P22303). The experiment in a line: Inhibition of human AChE using acetylthiocholine iodide as substrate pretreated for 5 mins followed by substrate addition measured after 5 mins by Ellman's method. A general note: DTNB colorimetry detects thiols as they appear.
The target of data set [2] is T2, Amine oxidase [flavin-containing] A (Homo sapiens, UniProt P21397).
T2 sequence (P21397 whole entry): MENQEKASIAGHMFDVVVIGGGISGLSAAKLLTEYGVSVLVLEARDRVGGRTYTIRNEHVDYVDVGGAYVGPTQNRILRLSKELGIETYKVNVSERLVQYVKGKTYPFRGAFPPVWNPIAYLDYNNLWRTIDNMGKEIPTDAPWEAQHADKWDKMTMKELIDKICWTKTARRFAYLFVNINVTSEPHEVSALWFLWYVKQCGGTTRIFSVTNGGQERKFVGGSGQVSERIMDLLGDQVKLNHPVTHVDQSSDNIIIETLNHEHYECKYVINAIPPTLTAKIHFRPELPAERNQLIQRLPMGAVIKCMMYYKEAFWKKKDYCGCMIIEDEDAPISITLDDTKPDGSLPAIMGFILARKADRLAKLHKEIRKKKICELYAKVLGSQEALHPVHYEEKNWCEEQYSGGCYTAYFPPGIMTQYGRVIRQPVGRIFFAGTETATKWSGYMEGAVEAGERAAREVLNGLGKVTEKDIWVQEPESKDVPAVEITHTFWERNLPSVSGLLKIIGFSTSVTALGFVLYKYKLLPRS
The experiment in a line: Inhibition of human recombinant microsomal MAOA expressed in baculovirus infected BTI-TN-5B1- 4 cells using p-tyramine as substrate assessed as decrease in H2O2 production at 10 uM by amplex red-based fluorescence assay.

For data set [3], the target named is T3, Amine oxidase [flavin-containing] B (Homo sapiens, UniProt P27338).
T3 sequence (P27338 whole entry): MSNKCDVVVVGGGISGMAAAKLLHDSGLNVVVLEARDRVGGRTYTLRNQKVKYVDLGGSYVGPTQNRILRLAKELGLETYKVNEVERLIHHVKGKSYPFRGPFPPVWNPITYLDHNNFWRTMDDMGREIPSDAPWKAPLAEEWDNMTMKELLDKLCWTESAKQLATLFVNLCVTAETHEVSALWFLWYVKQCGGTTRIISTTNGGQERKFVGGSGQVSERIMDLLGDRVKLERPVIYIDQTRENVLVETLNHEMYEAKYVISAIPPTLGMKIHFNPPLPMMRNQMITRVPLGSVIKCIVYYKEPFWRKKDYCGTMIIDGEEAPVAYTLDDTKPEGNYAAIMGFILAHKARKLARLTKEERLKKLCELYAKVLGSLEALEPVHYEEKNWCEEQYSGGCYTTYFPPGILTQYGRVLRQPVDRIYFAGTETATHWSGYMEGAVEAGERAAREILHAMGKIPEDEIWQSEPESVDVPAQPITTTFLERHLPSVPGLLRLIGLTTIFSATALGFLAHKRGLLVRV
Description: Inhibition of human recombinant MAOB expressed in baculovirus infected BTI-TN-5B1- 4 cells using p-tyramine as substrate assessed as decrease in H2O2 production at 10 uM by amplex red-based fluorescence assay.

The target in a further data set is Cholinesterase (Homo sapiens, UniProt P06276). Description: Inhibition of human serum BuChE at 10 uM using butyrylthiocholine as substrate pretreated for 5 mins followed by substrate addition measured after 5 mins by Ellman's method.
Sequence of Cholinesterase (P06276 whole entry): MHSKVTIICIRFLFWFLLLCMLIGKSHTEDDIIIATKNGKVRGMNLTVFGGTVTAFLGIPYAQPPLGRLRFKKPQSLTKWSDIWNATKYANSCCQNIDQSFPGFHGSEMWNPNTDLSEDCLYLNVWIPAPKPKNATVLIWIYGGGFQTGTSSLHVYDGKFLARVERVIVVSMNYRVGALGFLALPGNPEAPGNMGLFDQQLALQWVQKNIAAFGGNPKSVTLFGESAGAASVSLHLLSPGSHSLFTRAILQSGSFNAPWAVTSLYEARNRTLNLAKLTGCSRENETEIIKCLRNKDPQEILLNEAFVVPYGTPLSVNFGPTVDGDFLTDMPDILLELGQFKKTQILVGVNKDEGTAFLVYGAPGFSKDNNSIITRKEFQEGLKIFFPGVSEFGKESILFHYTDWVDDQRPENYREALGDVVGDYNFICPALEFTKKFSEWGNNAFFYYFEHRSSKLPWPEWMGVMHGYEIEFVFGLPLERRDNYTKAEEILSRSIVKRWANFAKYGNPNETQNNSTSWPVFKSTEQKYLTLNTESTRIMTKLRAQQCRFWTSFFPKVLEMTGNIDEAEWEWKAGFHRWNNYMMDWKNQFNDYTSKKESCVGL
Data set [4] deals with T3, Amine oxidase [flavin-containing] B. The experiment in a line: biochemical. Format: cell-based.
Description: Inhibition of human recombinant MAOB expressed in baculovirus infected BTI-TN-5B1- 4 cells using p-tyramine as substrate assessed as decrease in H2O2 production by amplex red-based fluorescence assay
For data set [5], the target named is T1, Acetylcholinesterase. The experiment in a line: Inhibition of human AChE at 10 uM using acetylthiocholine iodide as substrate pretreated for 5 mins followed by substrate addition measured after 5 mins by Ellman's method.
The next data set is described as follows: in vitro. The following applies: PAMPA. In general terms: PAMPA measures passive passage across an artificial lipid membrane.

T1 sequence (P22303 whole entry): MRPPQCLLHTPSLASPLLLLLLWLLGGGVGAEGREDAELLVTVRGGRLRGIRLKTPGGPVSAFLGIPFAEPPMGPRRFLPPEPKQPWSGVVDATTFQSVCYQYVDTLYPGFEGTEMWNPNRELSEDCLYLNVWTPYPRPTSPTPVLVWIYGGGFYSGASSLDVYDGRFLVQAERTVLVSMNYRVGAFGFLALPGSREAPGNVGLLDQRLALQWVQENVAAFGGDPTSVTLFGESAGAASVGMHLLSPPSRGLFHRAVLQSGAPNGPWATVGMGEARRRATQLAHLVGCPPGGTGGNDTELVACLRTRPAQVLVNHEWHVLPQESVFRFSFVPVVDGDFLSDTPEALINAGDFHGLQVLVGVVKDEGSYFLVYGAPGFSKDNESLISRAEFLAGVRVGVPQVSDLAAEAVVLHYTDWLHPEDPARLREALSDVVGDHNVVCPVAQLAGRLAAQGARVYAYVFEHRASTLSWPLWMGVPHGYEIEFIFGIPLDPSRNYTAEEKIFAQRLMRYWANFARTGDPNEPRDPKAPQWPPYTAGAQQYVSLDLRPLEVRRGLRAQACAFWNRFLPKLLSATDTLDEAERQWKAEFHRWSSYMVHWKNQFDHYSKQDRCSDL
Description for in vitro: Effective permeability of the compound at 1 mg/ml after 4 hrs by BBB-PAMPA method

Regarding `CCN(CC)CCOC(=O)/C=C/c1ccc2occ(C(=O)Nc3ccc(C)cc3)c(=O)c2c1`, the IC50 on Acetylcholinesterase [1] was found to be 8.99 µM. Moreover, the “inhibition (INH)” value in data set [2] and in data set [3] was “Not Active” each time. Besides, the inhibition result on Cholinesterase is “inactive”.
As for `CCN(CC)CCOC(=O)/C=C/c1ccc2oc(C(=O)Nc3ccccc3)cc(=O)c2c1`, the IC50 at Acetylcholinesterase [1] turned out to be 3.47 µM. The “inhibition (INH)” value in data set [2] and in data set [3] was “Not Active” each time. The inhibition result on Cholinesterase was “inactive”.
For `CN(C)CCOC(=O)/C=C/c1ccc2occ(C(=O)Nc3ccc(Cl)cc3)c(=O)c2c1`, the IC50 in data set [4] amounted to 0.72 µM; at Acetylcholinesterase [1], 9.32 µM. Also, the “inhibition (INH)” value in data set [2] is recorded as “Not Active”. Moreover, at Cholinesterase, the inhibition entry was “inactive”.
Compound `CN(C)CCOC(=O)/C=C/c1ccc2occ(C(=O)Nc3cccc(Cl)c3)c(=O)c2c1` registered a concentration for half-maximal inhibition (IC50) in data set [4] of 2.21 µM. Also, the “inhibition (INH)” value in data set [2] was “Not Active”. The inhibition entry at Acetylcholinesterase [5] and on Cholinesterase was “inactive” in each case.
Consider `CCN(CC)CCOC(=O)/C=C/c1ccc2oc(C(=O)Nc3ccc(Cl)cc3)cc(=O)c2c1`, for which the IC50 at Acetylcholinesterase [1] stood at 0.86 µM. The “inhibition (INH)” value in data set [2] and in data set [3] was “Not Active” throughout. Also, on Cholinesterase, the inhibition entry is “inactive”.
`O=C(O)/C=C/c1ccc2occ(C(=O)Nc3cccc(Cl)c3)c(=O)c2c1`: the “inhibition (INH)” value in data set [2] and in data set [3] was “Not Active” throughout. For the same compound, the inhibition result on Acetylcholinesterase [5] and on Cholinesterase was “inactive” each time.
With `CCN(CC)CCOC(=O)/C=C/c1ccc2occ(C(=O)Nc3cccc(Cl)c3)c(=O)c2c1`, the half-inhibitory concentration (IC50) was determined as 1.25 µM in data set [4] and 8.54 µM at Acetylcholinesterase [1]. Further, the “inhibition (INH)” value in data set [2] is on record as “Not Active”. Also, the inhibition entry on Cholinesterase is “inactive”.
For `Cc1ccc(NC(=O)c2cc(=O)c3cc(/C=C/C(=O)O)ccc3o2)cc1`, the IC50 on Acetylcholinesterase [1] turned out to be 5.1 µM. Besides, the “inhibition (INH)” value in data set [2] and in data set [3] was “Not Active” in each case. Moreover, the inhibition result at Cholinesterase was “inactive”. Besides, in the data set “in vitro”, the Papp at 4 h, 1 mg/ml turned out to be 1.5 ×10⁻⁶ cm/s.
Consider `CN(C)CCOC(=O)/C=C/c1ccc2oc(C(=O)Nc3cccc(Cl)c3)cc(=O)c2c1`, for which the concentration for half-maximal inhibition (IC50) on Acetylcholinesterase [1] came to 5.92 µM. The “inhibition (INH)” value in data set [2] and in data set [3] was “Not Active” in each case. The inhibition result on Cholinesterase is “inactive”.
For `Cc1ccc(NC(=O)c2cc(=O)c3cc(/C=C/C(=O)O)ccc3o2)cc1C`, the “inhibition (INH)” value in data set [2] and in data set [3] was “Not Active” throughout. The inhibition result on Acetylcholinesterase [5] and at Cholinesterase was “inactive” in each case.
Turning to `CCN(CC)CCOC(=O)/C=C/c1ccc2occ(C(=O)Nc3ccc(C)c(C)c3)c(=O)c2c1`, the “inhibition (INH)” value in data set [2] and in data set [3] was “Not Active” throughout. On Cholinesterase, the inhibition result was “inactive”.
Take `O=C(O)/C=C/c1ccc2oc(C(=O)Nc3ccc(Cl)cc3)cc(=O)c2c1`: the “inhibition (INH)” value in data set [2] and in data set [3] was “Not Active” in each case. Further, the inhibition result at Acetylcholinesterase [5] and at Cholinesterase was “inactive” throughout.
With `O=C(O)/C=C/c1ccc2oc(C(=O)Nc3cccc(Cl)c3)cc(=O)c2c1`, the “inhibition (INH)” value in data set [2] and in data set [3] was “Not Active” in each case. The inhibition result at Acetylcholinesterase [5] and at Cholinesterase was “inactive” in each case.
As for `CCN(CC)CCOC(=O)/C=C/c1ccc2occ(C(=O)Nc3ccc(Cl)cc3)c(=O)c2c1`, on Acetylcholinesterase [1], the IC50 came out at 7.68 µM. For the same compound, the “inhibition (INH)” value in data set [2] and in data set [3] was “Not Active” throughout. Besides, the inhibition entry at Cholinesterase was “inactive”.
Take `COc1ccc(NC(=O)c2coc3ccc(/C=C/C(=O)O)cc3c2=O)cc1`: at Acetylcholinesterase [1], the half-inhibitory concentration (IC50) was 8.7 µM. Also, the “inhibition (INH)” value in data set [2] and in data set [3] was “Not Active” in each case. In addition, at Cholinesterase, the inhibition entry is “inactive”.
Consider `O=C(O)/C=C/c1ccc2oc(C(=O)Nc3ccccc3)cc(=O)c2c1`, for which, at Acetylcholinesterase [1], the IC50 turned out to be 5.99 µM. Besides, the “inhibition (INH)” value in data set [2] and in data set [3] was “Not Active” throughout. The inhibition result on Cholinesterase is “inactive”. The compound also had a Papp at 4 h, 1 mg/ml in the data set “in vitro” of 0.9 ×10⁻⁶ cm/s.
Turning to `CCN(CC)CCOC(=O)/C=C/c1ccc2oc(C(=O)Nc3ccc(C)c(C)c3)cc(=O)c2c1`, the results for the IC50 (in data set [4]; on Acetylcholinesterase [1]) were 2.54 µM and 2.47 µM, respectively. In data set [2], the “inhibition (INH)” value is given as “Not Active”. Besides, the inhibition result on Cholinesterase is “inactive”.
For `CCN(CC)CCOC(=O)/C=C/c1ccc2occ(C(=O)Nc3ccccc3)c(=O)c2c1`, the “inhibition (INH)” value in data set [2] and in data set [3] was “Not Active” throughout. Also, the inhibition entry at Acetylcholinesterase [5] and on Cholinesterase was “inactive” each time.
Turning to `CCN(CC)CCOC(=O)/C=C/c1ccc2oc(C(=O)Nc3ccc(OC)cc3)cc(=O)c2c1`, the IC50 at Acetylcholinesterase [1] was found to be 1.14 µM. For the same compound, the “inhibition (INH)” value in data set [2] and in data set [3] was “Not Active” throughout. Further, the inhibition result at Cholinesterase is “inactive”.
In the case of `Cc1ccc(NC(=O)c2coc3ccc(/C=C/C(=O)O)cc3c2=O)cc1C`, the midpoint of inhibition in data set [4], the IC50, lay at 4.52 µM. For the same compound, the “inhibition (INH)” value in data set [2] was “Not Active”. The inhibition entry on Acetylcholinesterase [5] and on Cholinesterase was “inactive” in each case.
In the case of `COc1ccc(NC(=O)c2cc(=O)c3cc(/C=C/C(=O)O)ccc3o2)cc1`, the IC50 on Acetylcholinesterase [1] is 7.43 µM. Further, the “inhibition (INH)” value in data set [2] and in data set [3] was “Not Active” throughout. In addition, the inhibition result on Cholinesterase is “inactive”.
Take `O=C(O)/C=C/c1ccc2occ(C(=O)Nc3ccc(Cl)cc3)c(=O)c2c1`: the “inhibition (INH)” value in data set [2] and in data set [3] was “Not Active” throughout. Moreover, the inhibition entry on Acetylcholinesterase [5] and at Cholinesterase was “inactive” each time.
Turning to `CCN(CC)CCOC(=O)/C=C/c1ccc2occ(C(=O)Nc3ccc(OC)cc3)c(=O)c2c1`, the IC50 at Acetylcholinesterase [1] stood at 5.43 µM. Besides, the “inhibition (INH)” value in data set [2] and in data set [3] was “Not Active” throughout. Besides, the inhibition result on Cholinesterase was “inactive”.
`CCN(CC)CCOC(=O)/C=C/c1ccc2oc(C(=O)Nc3ccc(C)cc3)cc(=O)c2c1`: the IC50 on Acetylcholinesterase [1] worked out at 9.87 µM. For the same compound, the “inhibition (INH)” value in data set [2] and in data set [3] was “Not Active” in each case. In addition, the inhibition result at Cholinesterase is “inactive”.
In the case of `CCN(CC)CCOC(=O)/C=C/c1ccc2oc(C(=O)Nc3cccc(Cl)c3)cc(=O)c2c1`, the concentration for half-maximal inhibition (IC50) at Acetylcholinesterase [1] was determined as 4.45 µM. Moreover, the “inhibition (INH)” value in data set [2] and in data set [3] was “Not Active” each time. For the same compound, at Cholinesterase, the inhibition entry is “inactive”.
With `Cc1ccc(NC(=O)c2cc(=O)c3cc(/C=C/C(=O)OCCN(C)C)ccc3o2)cc1C`, the IC50 at Acetylcholinesterase [1] stood at 0.21 µM. The “inhibition (INH)” value in data set [2] and in data set [3] was “Not Active” throughout. Also, at Cholinesterase, the inhibition entry was “inactive”.
As for `CN(C)CCOC(=O)/C=C/c1ccc2oc(C(=O)Nc3ccc(Cl)cc3)cc(=O)c2c1`, the IC50 at Acetylcholinesterase [1] was 1.22 µM. The “inhibition (INH)” value in data set [2] and in data set [3] was “Not Active” throughout. Besides, the inhibition entry at Cholinesterase is “inactive”.
On to `COc1ccc(NC(=O)c2coc3ccc(/C=C/C(=O)OCCN(C)C)cc3c2=O)cc1`, for which the IC50 on Acetylcholinesterase [1] was 3.54 µM. Moreover, the “inhibition (INH)” value in data set [2] and in data set [3] was “Not Active” throughout. Also, the inhibition result on Cholinesterase is “inactive”.
`Cc1ccc(NC(=O)c2coc3ccc(/C=C/C(=O)OCCN(C)C)cc3c2=O)cc1C` displayed a half-inhibitory concentration (IC50) in data set [4] of 3.65 µM. The “inhibition (INH)” value in data set [2] is recorded as “Not Active”. The inhibition result on Acetylcholinesterase [5] and at Cholinesterase was “inactive” each time.

In general, IC50 refers to the concentration needed to halve the response being measured. A word on the Papp: it is the rate of passage across a membrane or cell layer, normalised by area and donor concentration.

The values above are taken from ChEMBL document CHEMBL4265951, “Multi-target-directed ligands for Alzheimer's disease: Discovery of chromone-based monoamine oxidase/cholinesterase inhibitors” (Eur J Med Chem, 2018).
